US20100267561A1, “HERBICIDAL PYRIDAZINONE DERIVATIVES” (priority 2007, published 2010)

Assays:
Type in all cases: in vivo
[1] = test system: blackgrass (Alopecurus myosuroides); experiment: Test B pre-/postemergence plant response; conditions: Preemergence
Source text: (§1) Seeds of plant species selected from blackgrass (Alopecurus myosuroides), downy bromegrass (Bromus tectorum), green foxtail (Setaria viridis), Italian ryegrass (Lolium multiflorum), wheat (Triticum aestivum), wild oat (Avena fatua), catchweed bedstraw (Galium aparine), bermudagrass (Cynodon dactylon), surinam grass (Brachiaria decumbens), cocklebur (Xanthium strumarium), corn (Zea mays), large crabgrass (Digitaria sanguinalis), woolly cupgrass (Eriochloa villosa), giant foxtail (Setaria faberii), goosegrass (Eleusine indica), johnsongrass (Sorghum halepense), kochia (Kochia scoparia), lambsquarters (Chenopodium album), morningglory (Ipomoea coccinea), eastern black (E.B.) nightshade (Solanum ptycanthum), yellow nutsedge (Cyperus esculentus), pigweed (Amaranthus retroflexus), common ragweed (Ambrosia elation), Russian thistle (Salsola iberica), soybean (Glycine max), common (oilseed) sunflower (Helianthus annuus), and velvetleaf (Abutilon theophrasti) were planted and treated preemergence with test chemicals formulated in a non-phytotoxic solvent mixture which included a surfactant.
(§2) At the same time, plants selected from these crop and weed species and also winter barley (Hordeum vulgare), canarygrass (Phalaris minor), chickweed (Stellaria media) and windgrass (Apera spica-venti) were treated with postemergence applications of some of the test chemicals formulated in the same manner. Plants ranged in height from 2 to 18 cm (1- to 4-leaf stage) for postemergence treatments.
(§3) Plant species in the flooded paddy test consisted of rice (Oryza sativa), umbrella sedge (Cyperus difformis), ducksalad (Heteranthera limosa) and barnyardgrass (Echinochloa crus-galli) grown to the 2-leaf stage for testing. At time of treatment, test pots were flooded to 3 cm above the soil surface, treated by application of test compounds directly to the paddy water, and then maintained at that water depth for the duration of the test. Treated plants and controls were maintained in a greenhouse for 13 to 15 days, after which time all species were compared to controls and visually evaluated. Plant response ratings, summarized in Table B, are based on a scale of 0 to 100 where 0 is no effect and 100 is complete control. A dash (-) response means no test result.

[2] = test system: morningglory (Ipomoea coccinea); experiment: Test B pre-/postemergence plant response; conditions: Preemergence
Source text: as §1, §2, §3

[3] = test system: lambsquarters (Chenopodium album); experiment: Test B pre-/postemergence plant response; conditions: Preemergence
Source text: as §1, §2, §3

[4] = test system: velvetleaf (Abutilon theophrasti); experiment: Test A pre-/postemergence plant response
In short: (§4)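 Seeds were planted in blended loam soil and sand, then treated preemergence by directed soil spray. At that time, emerged plants (one- to two-leaf, 2–10 cm) received postemergence applications of the same surfactant-containing formulation. Injury was assessed visually on a 0–100 scale after approximately 10 days.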

[5] = test system: wheat (Triticum aestivum); experiment: Test A pre-/postemergence plant response
In short: as §4

corn (Zea mays) = experiment: Test A pre-/postemergence plant response
In short: as §4

[6] = test system: pigweed (Amaranthus retroflexus); experiment: Test A pre-/postemergence plant response
In short: as §4

[7] = test system: barnyardgrass (Echinochloa crus-galli); experiment: Test A pre-/postemergence plant response
In short: as §4

[8] = test system: giant foxtail (Setaria faberi); experiment: Test A pre-/postemergence plant response
In short: as §4

[9] = test system: morningglory (Ipomoea coccinea); experiment: Test A pre-/postemergence plant response
In short: as §4

[10] = test system: large crabgrass (Digitaria sanguinalis); experiment: Test A pre-/postemergence plant response
In short: as §4

[11] = 16 g ai/ha, scale 0 to 100 (0 no effect, 100 complete control)
[12] = 31 g ai/ha, 0 to 100 scale, 0 no effect, 100 complete control
[13] = Postemergence, 31 g ai/ha, 0 to 100 scale, 0 no effect, 100 complete control
[14] = Postemergence, 125 g ai/ha, 0 to 100 scale, 0 no effect, 100 complete control
[15] = Preemergence, 31 g ai/ha, 0 to 100 scale, 0 is no effect, 100 is complete control
[16] = Preemergence, 125 g ai/ha, 0 to 100 scale (0 no effect, 100 complete control)

Structure (SMILES): Cc1cc(-c2ccc(Cl)cc2)nn1-c1c(OS(=O)(=O)c2cccc3ccccc23)cnn(C)c1=O [Compound 47]
- Plant response rating, Blackgrass [1, 11]: 70
- Plant response rating, Blackgrass [1, 12]: 100
- Plant response rating, Blackgrass ([1]; 62 g ai/ha, scale 0 to 100): 100
- Blackgrass plant response rating ([1]; 8 g ai/ha, scale 0 to 100): 70
- Plant response rating, Morningglory [2, 11]: 0
- Plant response rating, Morningglory ([2]; 31 g ai/ha, scale 0 to 100 (0 no effect, 100 complete control)): 0
- Plant response rating, Morningglory ([2]; 62 g ai/ha, scale 0 to 100): 0
- Morningglory plant response rating ([2]; 8 g ai/ha, scale 0 to 100): 0
- Plant response rating, Lambsquarters [3, 12]: 0
- Plant response rating, Lambsquarters ([3]; 62 g ai/ha, scale 0 to 100): 65
- Lambsquarters plant response rating ([3]; 8 g ai/ha, scale 0 to 100): 0
- Plant response rating, Velvetleaf [4, 13]: 0
- Plant response rating, Velvetleaf [4, 14]: 0
- Plant response rating, Velvetleaf [4, 15]: 0
- Plant response rating, Velvetleaf [4, 16]: 0
- Plant response rating, Wheat [5, 13]: 0
- Plant response rating, Wheat [5, 14]: 10
- Plant response rating, Wheat [5, 15]: 0
- Plant response rating, Wheat [5, 16]: 40
- Plant response rating, Corn (corn (Zea mays); [13]): 0
- Plant response rating, Corn (corn (Zea mays); [14]): 10
- Plant response rating, Corn (corn (Zea mays); [15]): 0
- Plant response rating, Corn (corn (Zea mays); [16]): 40
- Plant response rating, Pigweed [6, 13]: 0
- Plant response rating, Pigweed [6, 14]: 0
- Plant response rating, Pigweed [6, 15]: 0
- Plant response rating, Pigweed [6, 16]: 0
- Plant response rating, Barnyardgrass [7, 13]: 0
- Plant response rating, Barnyardgrass [7, 14]: 40
- Plant response rating, Barnyardgrass [7, 15]: 20
- Plant response rating, Barnyardgrass [7, 16]: 80
- Plant response rating, Foxtail, Giant [8, 13]: 10
- Plant response rating, Foxtail, Giant [8, 14]: 60
- Plant response rating, Foxtail, Giant [8, 15]: 70
- Plant response rating, Foxtail, Giant [8, 16]: 90
- Plant response rating, Morningglory [9, 13]: 0
- Plant response rating, Morningglory [9, 14]: 0
- Plant response rating, Morningglory [9, 15]: 0
- Plant response rating, Morningglory [9, 16]: 0
- Plant response rating, Crabgrass, Large [10, 13]: 10
- Plant response rating, Crabgrass, Large [10, 14]: 50
- Plant response rating, Crabgrass, Large [10, 15]: 10
- Plant response rating, Crabgrass, Large [10, 16]: 90
